In brackets after ≈: the same amount, converted by molar mass. Where two headings read alike, the source gives them in different places. Marks after values point to notes of the source that are not given here.
Assays:
[1] = test system: K. pneumoniae Kp07, VIM-1 producer; test: MIC by broth microdilution (agar dilution for fosfomycin); type: cell-based, Klebsiella pneumoniae; conditions: supplement table, strain KPc07; for MIC: Klebsiella pneumoniae; for SIR, classification according to EUCAST definitions: EUCAST 2016 breakpoints, fosfomycin by agar dilution
From the text: (§1) Four genetically unrelated clinical isolates of CP-Kp were studied: Kp07, a VIM-1 ST 1603 clone producer ([Miro et al., 2013]); Kp21, which co-produced VIM-1 and the acquired AmpC type beta-lactamase DHA-1 ST 11 clone ([Miro et al., 2013]); Kp28, co-producing OXA-48 ST11 clone and the extended spectrum beta-lactamase (ESBL) CTX-M-15 ([Oteo et al., 2015]); and Kp29, co-producing KPC-3 ST512 clone with the broad spectrum beta-lactamases TEM-1 and SHV-11 ([Lopez-Cerero et al., 2014]), thereinafter VIM-1, VIM-1/DHA-1, OXA-48 plus CTX-M-15, and KPC-3 producers, respectively. Identification of these isolates was confirmed by a Microflex LT-MALDI Biotyper mass spectrometer (Bruker Daltonics GmbH, Bremen, Germany). The presence of carbapenemase genes, and genes coding for other beta-lactamases was confirmed by PCR and sequencing as described previously. The absence of genetic relation among the isolates was confirmed by PFGE analysis of chromosomal restriction fragments obtained after XbaI cleavage following the criteria of [Tenover et al. (1995)]. […] The antibiotic susceptibility profiles are included in the Supplementary Information.
(§2) MICs of antibiotics were determined by broth microdilution as recommended by the [Clinical and Laboratory Standards Institute [CLSI] (2012)], using Mueller Hinton broth II (MHB) (Becton Dickinson & Co., Sparks, MD, United States) and agar dilution method for fosfomycin. MIC results were interpreted according to the [European Committee on Antimicrobial Susceptibility Testing [EUCAST] (2016)]^1 breakpoints. Studies were performed in triplicate.

[2] = test system: K. pneumoniae Kp28, OXA-48 plus CTX-M-15 producer; test: as above; type: cell-based, Klebsiella pneumoniae; conditions: supplement table, strain KPc28; for MIC: Klebsiella pneumoniae; for SIR, classification according to EUCAST definitions: EUCAST 2016 breakpoints, fosfomycin by agar dilution
From the text: as §1, §2

[3] = test system: K. pneumoniae Kp29, KPC-3 producer; test: as above; type: cell-based, Klebsiella pneumoniae; conditions: for MIC: Klebsiella pneumoniae
From the text: as §1, §2

[4] = test system: K. pneumoniae Kp21, VIM-1/DHA-1 producer; test: as above; type: cell-based, Klebsiella pneumoniae; conditions: supplement table, strain KPc21; for MIC: Klebsiella pneumoniae; for SIR, classification according to EUCAST definitions: EUCAST 2016 breakpoints, fosfomycin by agar dilution
From the text: as §1, §2

[5] = test system: K. pneumoniae OXA-48 plus CTX-M-15 strain; test: Murine peritoneal sepsis model; type: in vivo, C57BL/6 mice infected with Klebsiella pneumoniae; conditions: CMS 20 mg/kg/8 h ip, rifampin 25 mg/kg/6 h ip, alone or combined; for Mice mortality (%) / Log10 cfu/g spleen (mean ±SD): 72 h, from 4 h post-inoculation; for Log10 cfu/g spleen (mean ±SD): ip MLD 9.35 log10 cfu/mL, at death or 72 h; for Bacteremia (%): qualitative blood cultures at death or 72 h
Procedure: (§3) A previously described murine peritoneal sepsis model was used ([Parra Millan et al., 2016]). Briefly, groups of un-anesthetized C57BL/6 mice were infected by ip injection of 0.5 mL of the Minimal Lethal Dose (MLD) of each strain, corresponding to (log10 cfu/mL): 8.97, 8.94 9.35, and 8.38 for VIM-1, VIM-1/DHA-1, OXA-48 plus CTX-M-15, and KPC-3 strains, respectively. Treatments were initiated 4 h post-inoculation. […] Afterward, mice were treated and monitored for 72 h. […] Samples were extracted and processed immediately after the death of mice; the survivor mice were sacrificed (sodium thiopental) at the 72 h. Aseptic thoracotomies were carried out, and blood samples were obtained for qualitative blood cultures; results were expressed as positive (≥1 cfu present in the plate) or negative. Spleens were aseptically extracted, weighed, and homogenized in sterile saline (Stomacher 80; Tekmar Co., Cincinnati, OH, United States) before quantitative cultures (log10 cfu/g) in Columbia agar with 5% sheep blood plates.
(§4) Mortality and bacteremia rates are expressed as percentages and bacterial tissue concentrations (log10 cfu/g) as means ±SD. The two-tailed Fisher’s test, analysis of variance (ANOVA), and the Dunnet and Tukey post hoc tests were used. A P < 0.05 was considered significant. The SPSS v22.0 statistical package was used (SPSS Inc).

[6] = test system: K. pneumoniae OXA-48 plus CTX-M-15 strain; type: in vivo; conditions: for Bacteremia (%): blood cultures at death or 72 h; for Log10 cfu/g lung (mean ±SD): intratracheal 50 μl of 8.18 log10 cfu/mL, at death or 72 h
Procedure: A previously characterized murine pneumonia model was used ([Pachon-Ibanez et al., 2010]; [Docobo-Perez et al., 2012]; [Parra Millan et al., 2016]) with the OXA-48 plus CTX-M-15 strain, as OXA-48 is the most prevalent carbapenemase in Spain nowadays ([Palacios-Baena et al., 2016]). Anesthetized mice were infected intratracheally, using 50 μl of a final inoculum of 8.18 log10 cfu/mL. Therapies were initiated 4 h post-infection and treatment groups and dosages were the same as in the peritoneal sepsis model. Mice were treated and monitored over 72 h. After death or sacrifice of the mice at 72 h, blood and lungs samples were aseptically obtained and processed as detailed above.
as §4

[7] = test system: K. pneumoniae VIM-1 strain; type: in vivo; conditions: CMS 20 mg/kg/8 h ip, rifampin 25 mg/kg/6 h ip, alone or combined; for Bacteremia (%): qualitative blood cultures at death or 72 h
Procedure: as §3, §4

[8] = test system: K. pneumoniae VIM-1/DHA-1 strain; type: in vivo; conditions: CMS 20 mg/kg/8 h ip, rifampin 25 mg/kg/6 h ip, alone or combined; for Mice mortality (%) / Log10 cfu/g spleen (mean ±SD): 72 h, from 4 h post-inoculation; for Log10 cfu/g spleen (mean ±SD): ip MLD 8.94 log10 cfu/mL, at death or 72 h; for Bacteremia (%): qualitative blood cultures at death or 72 h
Procedure: as §3, §4

[9] = test system: K. pneumoniae OXA-48 plus CTX-M-15 producer; type: cell-based, Klebsiella pneumoniae; conditions: colistin 0.5 mg/L (MIC), rifampin 2 mg/L, alone or combined; inoculum 1 × 10^6 cfu/mL, 37°C, samples 0-24 h; three experiments
Procedure: (§5) (2016)]. […] Tubes were incubated at 37°C, with shaking, and samples were taken at 0, 1, 3, 6, and 24 h, serially diluted and plated using a spiral platter (Eddy Jet, IUL S.A., Barcelona, Spain). Bacterial colonies were counted using an automatic counter (Flash & Go, IUL S.A., Barcelona, Spain) ([Pournaras et al., 2011]; [Souli et al., 2011]). Experiments were performed three times on separate occasions. […] Bactericidal activities of single antibiotics or combination were defined as a decrease ≥ 3 log10 cfu/mL from the starting inoculum ([Souli et al., 2009]). Studies were performed in triplicate.
(§6) The RIF concentration used for all strains was 2 mg/L. RIF, filled circles; CST, filled squares; combination of both antimicrobials, filled triangles.

[10] = test system: K. pneumoniae VIM-1 producer; type: cell-based, Klebsiella pneumoniae; conditions: colistin 0.5 mg/L (MIC), rifampin 2 mg/L, alone or combined; inoculum 1 × 10^6 cfu/mL, 37°C, samples 0-24 h; three experiments
Procedure: as §5, §6

[11] = test system: K. pneumoniae VIM-1/DHA-1 producer; type: cell-based, Klebsiella pneumoniae; conditions: colistin 2 mg/L (EUCAST breakpoint), rifampin 2 mg/L, alone or combined; inoculum 1 × 10^6 cfu/mL, 37°C, samples 0-24 h; three experiments
Procedure: as §5, §6

[12] = Serum pharmacokinetics in healthy mice; conditions: single ip dose (CMS 20 mg/kg; rifampin 25 mg/kg), LC-MS/MS, PKSOLVER
Procedure: (§7) Mice were housed in an individually ventilated cage system under specific pathogen-free conditions, and water and food supplied ad libitum. […] All procedures were performed under sodium thiopental (B. Braun Medical S.A., Spain) anesthesia, and all efforts were made to minimize suffering.
(§8) Blood samples were immediately centrifuged (4500 rpm, 15 min at 4°C), and serum samples stored at -80°C until the analysis. Both serum free and total antibiotic concentrations were measured using HPLC-tandem mass spectrometry (LC-MS/MS) ([Waters et al., 2008]; [Gobin et al., 2010]). Free fractions of the drugs were calculated as described previously ([Waters et al., 2008]; [Gonzalez et al., 2013]; [Cheah et al., 2015]).

[13] = mouse, in vivo
Procedure: as §7, §8

[14] = test system: K. pneumoniae KPC-3 strain; type: in vivo, C57BL/6 mice infected with Klebsiella pneumoniae; conditions: CMS 20 mg/kg/8 h ip, rifampin 25 mg/kg/6 h ip, alone or combined
Procedure: as §3, §4

[15] = broth microdilution, read-out: MIC
[16] = agar dilution, read-out: MIC (agar dilution method)
[17] = supplement table, strain KPc29, EUCAST 2016 breakpoints, fosfomycin by agar dilution
[18] = CMS 20 mg/kg/8 h ip, rifampin 25 mg/kg/6 h ip, alone or combined
[19] = CMS 20 mg/kg/8 h ip, rifampin 25 mg/kg/6 h ip, alone or combined, from 4 h post-infection, 72 h
[20] = 72 h, from 4 h post-inoculation

Row | Compound | MIC [1, 15] [mg/L] | SIR, classification according to EUCAST definitions [1] | MIC [2, 15] [mg/L] | SIR, classification according to EUCAST definitions [2] | MIC [3] [mg/L] | MIC [4, 15] [mg/L] | SIR, classification according to EUCAST definitions [4] | SIR, classification according to EUCAST definitions [3, 17] | Mice mortality (%) [5] [%] | Log10 cfu/g spleen (mean ±SD) [5] | Bacteremia (%) [5] [%] | Bacteremia (%) [6, 18] [%] | Log10 cfu/g lung (mean ±SD) [6, 19] | Mice mortality (%) [7, 20] [%] | Bacteremia (%) [7] [%] | Mice mortality (%) [8] [%] | Log10 cfu/g spleen (mean ±SD) [8] [log10 cfu/g] | Bacteremia (%) [8] [%] | also measured
1 | NCC[C@H](O)C(=O)N[C@@H]1C[C@H](N)[C@@H](O[C@H]2O[C@H](CN)[C@@H](O)[C@H](O)[C@H]2O)[C@H](O)[C@H]1O[C@H]1O[C@H](CO)[C@@H](O)[C@H](N)[C@H]1O [Amikacin] | 1 (≈ 1.71 µM) | S | 1 (≈ 1.71 µM) | S | > 32 | 4 (≈ 6.83 µM) | S | – | – | – | – | – | – | – | – | – | – | – | SIR, classification according to EUCAST definitions [3]: R
2 | C[C@@H]1O[C@@H]1P(=O)(O)O [Fosfomycin] | – | S | – | S | – | – | S | R | – | – | – | – | – | – | – | – | – | – | MIC [1, 16]: 8 mg/L (≈ 57.9 µM); MIC [2, 16]: 32 mg/L (≈ 232 µM); MIC ([3]; supplement table, strain KPc29, agar dilution, read-out: MIC (agar dilution method)): 64 mg/L (≈ 464 µM); MIC [4, 16]: 8 mg/L (≈ 57.9 µM)
3 | CNC(C)C1CCC(N)C(OC2C(N)CC(N)C(OC3OCC(C)(O)C(NC)C3O)C2O)O1 (stereo not drawn) [Gentamicin] | 4 (≈ 8.38 µM) | I | 0.5 (≈ 1.05 µM) | S | – | 2 (≈ 4.19 µM) | S | S | – | – | – | – | – | – | – | – | – | – | –
4 | C[C@@H](O)[C@H]1C(=O)N2C(C(=O)O)=C(S[C@@H]3CN[C@H](C(=O)N(C)C)C3)[C@H](C)[C@H]12 [Meropenem] | 2 (≈ 5.22 µM) | S | 2 (≈ 5.22 µM) | S | > 32 | 16 (≈ 41.7 µM) | R | R | – | – | – | – | – | – | – | – | – | – | –
5 | CO[C@H]1/C=C/O[C@@]2(C)Oc3c(C)c(O)c4c(O)c(c(/C=N/N5CCN(C)CC5)c(O)c4c3C2=O)NC(=O)/C(C)=C\C=C\[C@H](C)[C@H](O)[C@@H](C)[C@@H](O)[C@@H](C)[C@H](OC(C)=O)[C@@H]1C [Rifampin, rifampin] | – | – | – | – | – | – | – | – | 100 | 8.24 ± 0.76^c log10 cfu/g | 100 | 20 | 3.07 ± 1.63^a log10 cfu/g | 100 | 100 | 100 | 9.68 ± 0.09 | 100 | Bactericidal activity in time-kill curves (decrease ≥ 3 log10 cfu/mL from the starting inoculum) [9]: did not show bactericidal activity; Bactericidal activity in time-kill curves (decrease ≥ 3 log10 cfu/mL from the starting inoculum) [10]: did not show bactericidal activity; Bactericidal activity in time-kill curves (decrease ≥ 3 log10 cfu/mL from the starting inoculum) [11]: did not show bactericidal activity; AUC0-24, free drug in serum (fAUC0-24) ([12]; free (fCST, fRIF)): 44.14 mg⋅h/L; Cmax, free drug in serum ([12]; free (fCST, fRIF), sets of three mice): 2.90 µg/mL; AUC0-24, total drug in serum ([12]; total (tCST, tRIF)): 1103.58 mg⋅h/L; Cmax, total drug in serum ([12]; total (tCST, tRIF), sets of three mice): 72.58 µg/mL
6 | colistimethate sodium [CMS] | – | – | – | – | – | – | – | – | 100 | 9.52 ± 0.55 log10 cfu/g | 100 | 40 | 5.14 ± 3.78 log10 cfu/g | 93.33 | 100 | 100 | 9.54 ± 0.34 | 100 | t1/2, free drug in serum [13]: 3.82 h; t1/2, total drug in serum [13]: 3.82 h; Mice mortality (%) ([6]; 72 h, CMS 20 mg/kg/8 h ip, rifampin 25 mg/kg/6 h ip, alone or combined, from 4 h post-infection): 26.70%; Bacterial lung decrease ([6]; CMS monotherapy 20 mg/kg/8 h ip vs control group, not significant): 2.91 log10 cfu/g; Log10 cfu/g spleen (mean ±SD) ([7]; ip MLD 8.97 log10 cfu/mL, from 4 h post-inoculation, 72 h, at death or 72 h, SD): 8.60 ± 0.30 log10 cfu/g; Mice mortality (%) [14, 20]: 75%; Log10 cfu/g spleen (mean ±SD) ([14]; ip MLD 8.38 log10 cfu/mL, from 4 h post-inoculation, 72 h, at death or 72 h, SD): 9.19 ± 1.85 log10 cfu/g; Bacteremia (%) ([14]; qualitative blood cultures at death or 72 h): 100%

From paper PMC5962653 (Frontiers in Microbiology, 2018)
